Experiment [1] has as its system MCF-7 ADR cells. Description: Radiosensitizing activity assay, surviving cells counted by trypan blue staining. The conditions noted are these: for radiosensitization: MCF-7 ADR cells (mutant p53, high GST content); for % living cells relative to control without drug treatment: MCF-7ADR. In kind it is cell-based, Human. On the procedure: (§1) Biological assay for radiosensitizing activity of MDM2 antagonistic compounds: Human tumor cell lines containing wild-type p53 and low levels of GST, such as MCF7 (breast carcinoma) or mutant p53 and a high GST content, such as MCF7 ADR (adriamycin-resistant breast carcinoma) are cultivated in RPMI medium, supplemented with 10% fetal calf serum to a semi-confluent state.
In order to determine the radiosensitizing activity of selected compounds on these cells a minimal toxic dose was determined as 2Gy (gray: J/kg) with a ^137Cesium source at room temperature. […] Cells were trypsinized and seeded in appropriate dilutions into 6 well plates. Surviving cells were trypsinized after 12-13 days and cell number was determined by staining with trypane blue for living/dead cells. The protocol was established according to Khil et al., 1996, Int. J. Rad. Oncol. Biol. Phys. 34, 375-380.

Experiment [2] concerns the target HT29 cytosolic GST (Homo sapiens, UniProt P09211). Description: Spectrophotometric GST activity analysis in HT29 cell extracts (CDNB/glutathione). Type of experiment: biochemical. The conditions noted are these: HT29 cell extract. As to the method: GST catalyzes the conjugation of CDNB with glutathione and results in a CDNB-glutathione product with a strong molar absorption at 340 nm. The change of absorption is monitored for 5 min.
1 x 10^6 cells are collected and washed once with ice-cold phosphate-buffered saline at 1000 rpm for 10 min at 4°C. Cell pellets are resuspended in 200 µl ice-cold phosphate-buffered saline, and are sonicated for 2 min on ice. The sonicate is then centrifuged at 11750 g, 4°C for 15 min in an Eppendorf Centrifuge, and the supernatant is assayed for GST activity.

Experiment [3] deals with MCF-7 cells. The experiment can be described thus: Radiosensitizing activity assay, surviving cells counted by trypan blue staining. Type of experiment: cell-based, Human. On the procedure:
as §1
In order to determine the radiosensitizing activity of selected compounds on these cells a minimal toxic dose was determined as 2Gy (gray: J/kg) with a ^137Cesium source at room temperature. Following irradiation of monolayer cells in exponential growth phase with 2 Gy, cells were incubated with various concentrations of the selected compounds for 2-6 h. Cells were trypsinized and seeded in appropriate dilutions into 6 well plates. Surviving cells were trypsinized after 12-13 days and cell number was determined by staining with trypane blue for living/dead cells. The protocol was established according to Khil et al., 1996, Int. J. Rad. Oncol. Biol. Phys. 34, 375-380.

The target in experiment [4] is T1, MDM2 (Homo sapiens, UniProt Q00987).
T1 construct: 40 µl of mdm2 1-213 (100nM in PBST) were mixed with 40 µl of the sample; made in house
T1 sequence (Q00987 1-213): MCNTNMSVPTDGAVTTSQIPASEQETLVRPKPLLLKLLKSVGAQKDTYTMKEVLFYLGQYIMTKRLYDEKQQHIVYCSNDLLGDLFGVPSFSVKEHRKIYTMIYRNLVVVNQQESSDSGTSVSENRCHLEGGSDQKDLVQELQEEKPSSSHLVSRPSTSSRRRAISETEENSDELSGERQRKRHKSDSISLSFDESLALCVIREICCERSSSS
The experiment can be described thus: Interaction of compounds with MDM2. In kind it is binding. On the procedure:
BIACORE analysis of the interaction between MDM2 and p53: To quantify the effect of selected compounds on the p53 binding properties of MDM2 protein biosensor measurements using BIACORE 2000 are performed. BIACORE 2000 is a biosensor system delivered from BIACORE AB. The technology of this biosensor is based on the optical phenomenon of surface plasmon resonance (SRP), which detects changes in refractive index of the solution close to the surface of the sensor chip. The refractive index is directly correlated to the mass concentration in the layer and increases when analyte binds to a surface immobilized ligand. Experiments are performed under continuous flow conditions. The SPR response expressed in resonance units (RU) is recorded continuously versus time resulting in a sensorgram. When one interaction is completed, the surface can be regenerated using solutions which remove bound analyte without affecting the activity of the bound ligand. […] After additional 4 minutes rinsing the surface with PBST buffer, a signal was recorded. By comparing the signals of the samples with those of buffer, the inhibitory effects of the samples could be evaluated. […]

Where [5] appears, read: 2 Gy + drug 20 µg/ml, drug incubation time following irradiation 0 hours.
The mark [6] stands for this setting: 2 Gy + drug 20 µg/ml, drug incubation time following irradiation 2 hours.
Setting [7] is: 2 Gy + drug 20 µg/ml, drug incubation time following irradiation 6 hours.
Where [8] appears, read: drug alone 20 µg/ml, drug incubation time 0 hours.
Setting [9] is: drug alone 20 µg/ml, drug incubation time 2 hours.
[10] abbreviates: drug alone 20 µg/ml, drug incubation time 6 hours.

The source of these data is patent EP0947494A1, “Derivatives of phenoxy acetic acid and phenoxymethyltetrazole having antitumor activity” (F. HOFFMANN-LA ROCHE AG, priority 1998, dated 1999).

Chain of HT29 cytosolic GST (P09211 2-210): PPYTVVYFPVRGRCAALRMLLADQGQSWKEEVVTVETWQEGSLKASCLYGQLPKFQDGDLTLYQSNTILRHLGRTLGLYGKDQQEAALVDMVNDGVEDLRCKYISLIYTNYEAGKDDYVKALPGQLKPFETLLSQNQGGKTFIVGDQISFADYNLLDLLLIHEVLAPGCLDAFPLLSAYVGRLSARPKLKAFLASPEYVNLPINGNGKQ

Turning to `O=C(O)COc1ccc(C(=O)/C=C/c2ccc(Cl)c(Cl)c2)cc1` [LSM 83177, 3,4-dichloro-4'-(carboxymethoxy)chalcone], in experiment [1], the radiosensitization entry was “Radiosensitizing activity independent of the GST content of the target cell can be observed”. In addition, the “% living cells relative to control without drug treatment” value in experiment [1] (setting [5]) came out at 100%; in experiment [1] (setting [6]), 72.8%; in experiment [1] (setting [7]), 48.8%; in experiment [1] (setting [8]), 100%; in experiment [1] (setting [9]) it was 87.2%; in experiment [1] (setting [10]), 85.7%. In addition, the “% living cells relative to control without drug treatment” value in experiment [3] (setting [5]) is recorded as 100%; in experiment [3] (setting [6]), 41.8%; in experiment [3] (setting [7]), 17%; in experiment [3] (setting [8]), 100%; in experiment [3] (setting [9]) it was 64.1%; in experiment [3] (setting [10]) it was 36.4%. The activity at 0.2 µg/mL in experiment [2] (concentration 0,2 µg/ml) was determined as 100%. Further, the activity at 0.04 µg/mL in experiment [2] (concentration 0,04 µg/ml) came out at 100%. In experiment [2] (concentration 0,4 µg/ml), this compound gave an activity at 0.4 µg/mL of 100%. The activity at 1 µg/mL in experiment [2] (concentration 1 µg/ml) was 100%. For the same compound, the activity at 2 µg/mL in experiment [2] (concentration 2 µg/ml) was 100%. In experiment [2] (concentration 5 µg/ml), this compound returned an activity at 5 µg/mL of 73%. This compound registered an activity at 8 µg/mL in experiment [2] (concentration 8 µg/ml) of 46%. In addition, in experiment [2] (concentration 10 µg/ml), the activity at 10 µg/mL was found to be 26%. This compound showed an activity at 20 µg/mL in experiment [2] (concentration 20 µg/ml) of 0%. This compound returned an activity at 1.3 µg/mL in experiment [2] (concentration 1,3 µg/ml) of 100%. Further, the activity at 2.5 µg/mL in experiment [2] (concentration 2,5 µg/ml) was found to be 95%. Also, the figures for the “enhancement of irradiation by the drug (factor)” value in experiment [3] (drug incubated for 2 hours) and in experiment [3] (drug incubated for 6 hours) were 1.5 and 2, respectively.

For the compound `C=C(CC)C(=O)c1ccc(OCC(=O)O)c(Cl)c1Cl` [ethacrynic acid, reference compound], the radiosensitization result in experiment [1] was “does not mediate any radiosensitization”. Also, the “% living cells relative to control without drug treatment” value in experiment [1] (setting [5]) was found to be 100%; in experiment [1] (setting [6]), 82.5%; in experiment [1] (setting [7]), 133.6%; in experiment [1] (setting [8]), 100%; in experiment [1] (setting [9]), 88.9%; in experiment [1] (setting [10]), 99%. The “% living cells relative to control without drug treatment” value was found to be 100% in experiment [3] (setting [5]); 42.7% in experiment [3] (setting [6]); 20.5% in experiment [3] (setting [7]); 100% in experiment [3] (setting [8]); 52.3% in experiment [3] (setting [9]); 43.1% in experiment [3] (setting [10]). Also, the “interaction with MDM2” value in experiment [4] is “interaction of ethacrynic acid with MDM2 was surprisingly observed”. The “enhancement of irradiation by the drug (factor)” value was 1.5 in experiment [3] (drug incubated for 2 hours) and 2 in experiment [3] (drug incubated for 6 hours).
